Source: ChEMBL document CHEMBL3885881, “DrugMatrix”

Species: Rattus norvegicus
Assay: DrugMatrix - Regimen: Daily Repeat
Format: toxicity, organism-based, Sprague-Dawley
Set-up: regimen Daily Repeat, gender Male, age 6-8 weeks
Details: in vivo, po, route oral GAVAGE, […]; for ABSOLUTE BASOPHIL / ABSOLUTE EOSINOPHIL / ABSOLUTE LYMPHOCYTE / ABSOLUTE MONOCYTE / ABSOLUTE SEGMENTED NEUTROPHIL / BASOPHIL / EOSINOPHIL / ERYTHROCYTE COUNT / HEMATOCRIT / HEMOGLOBIN / LEUKOCYTE COUNT / LYMPHOCYTE / MEAN CORPUSCULAR HEMOGLOBIN / MEAN CORPUSCULAR HEMOGLOBIN CONCENTRATION / MEAN CORPUSCULAR VOLUME / MONOCYTE / NEUTROPHIL / NUCLEATED RED BLOOD CELLS / PLATELET COUNT: tissue Blood; for ALANINE AMINOTRANSFERASE / ALBUMIN / ALKALINE PHOSPHATASE / ASPARTATE AMINOTRANSFERASE / BLOOD UREA NITROGEN / CARBON DIOXIDE / CHLORIDE / CHOLESTEROL / CREATINE PHOSPHOKINASE / CREATININE / GLUCOSE / LACTATE DEHYDROGENASE / LIPASE / PHOSPHORUS / POTASSIUM / SODIUM / TOTAL BILIRUBIN / TOTAL PROTEIN / URIC ACID: tissue Plasma
[1] = 0 mg/kg, 72 h, dose level Control, time 3 day
[2] = 0 mg/kg, 120 h, dose level Control, time 5 day
[3] = 80 mg/kg, 72 h, dose level Low, time 3 day

Which “ABSOLUTE BASOPHIL” value [1] does the source give for CC(C)(Oc1ccc(C2CCCc3ccccc32)cc1)C(=O)O (centres undefined) [NAFENOPIN] here?
The value was 0 CELLS/uL.

And the “ABSOLUTE EOSINOPHIL” value [1]?
Its value is 47.67 CELLS/uL.

And the “ABSOLUTE LYMPHOCYTE” value [1]?
The value was 11079 CELLS/uL.

And the “ABSOLUTE MONOCYTE” value [1]?
The value was 251.67 CELLS/uL.

And the “ABSOLUTE SEGMENTED NEUTROPHIL” value [1]?
The value was 1505 CELLS/uL.

And the BASOPHIL [1]?
Its BASOPHIL is 0%.

What about the EOSINOPHIL [1] of the same compound?
Its EOSINOPHIL is 0.33%.

What about the “ERYTHROCYTE COUNT” value [1] of the same compound?
The value was 5.31 x10E6/uL.

What about the HEMATOCRIT [1] of the same compound?
The HEMATOCRIT was 32.87%.

And the HEMOGLOBIN [1]?
The HEMOGLOBIN was 12.27 G/DL.

What about the “LEUKOCYTE COUNT” value [1] of the same compound?
Its value is 12.88 x10E3/uL.

And the LYMPHOCYTE [1]?
The LYMPHOCYTE was 86.17%.

And the “MEAN CORPUSCULAR HEMOGLOBIN” value [1]?
Its value is 23.2 pg.

And the “MEAN CORPUSCULAR HEMOGLOBIN CONCENTRATION” value [1]?
The value was 37.37 G/DL.

And the “MEAN CORPUSCULAR VOLUME” value [1]?
Its value is 62.03 fL.

What about the MONOCYTE [1] of the same compound?
The MONOCYTE was 2%.

And the NEUTROPHIL [1]?
Its NEUTROPHIL is 11.5%.

What about the “NUCLEATED RED BLOOD CELLS” value [1] of the same compound?
The value was 0 /100WBC.

What about the “PLATELET COUNT” value [1] of the same compound?
The value was 956.5 x10E3/uL.

And the “ALANINE AMINOTRANSFERASE” value [1]?
Its value is 69.67 u/L.

And the ALBUMIN [1]?
The ALBUMIN was 4.15 G/DL.

And the “ALKALINE PHOSPHATASE” value [1]?
The value was 415.33 u/L.

What about the “ASPARTATE AMINOTRANSFERASE” value [1] of the same compound?
The value was 93.17 u/L.

What about the “BLOOD UREA NITROGEN” value [1] of the same compound?
The value was 17.33 mg/dL.

And the “CARBON DIOXIDE” value [1]?
The value was 27.33 mmol/L.

And the CHLORIDE [1]?
Its CHLORIDE is 100.17 MEQ/L.

And the CHOLESTEROL [1]?
Its CHOLESTEROL is 76.5 mg/dL.

And the “CREATINE PHOSPHOKINASE” value [1]?
Its value is 587 u/L.

What about the CREATININE [1] of the same compound?
The CREATININE was 0.25 mg/dL.

What about the GLUCOSE [1] of the same compound?
The GLUCOSE was 155.5 mg/dL.

And the “LACTATE DEHYDROGENASE” value [1]?
The value was 343.5 u/L.

And the LIPASE [1]?
The LIPASE was 11.17 u/L.

And the PHOSPHORUS [1]?
The PHOSPHORUS was 11.77 mg/dL.

And the POTASSIUM [1]?
Its POTASSIUM is 6.51 MEQ/L.

What about the SODIUM [1] of the same compound?
The SODIUM was 140.93 MEQ/L.

What about the “TOTAL BILIRUBIN” value [1] of the same compound?
Its value is 0.2 mg/dL.

What about the “TOTAL PROTEIN” value [1] of the same compound?
Its value is 5.87 G/DL.

And the “URIC ACID” value [1]?
Its value is 1.43 mg/dL.

What about the “ABSOLUTE BASOPHIL” value [2] of the same compound?
The value was 0 CELLS/uL.

And the “ABSOLUTE EOSINOPHIL” value [2]?
Its value is 22.67 CELLS/uL.

And the “ABSOLUTE LYMPHOCYTE” value [2]?
Its value is 12729.33 CELLS/uL.

And the “ABSOLUTE MONOCYTE” value [2]?
The value was 424.67 CELLS/uL.

What about the “ABSOLUTE SEGMENTED NEUTROPHIL” value [2] of the same compound?
Its value is 2006.67 CELLS/uL.

What about the BASOPHIL [2] of the same compound?
Its BASOPHIL is 0%.

What about the EOSINOPHIL [2] of the same compound?
The EOSINOPHIL was 0.17%.

And the “ERYTHROCYTE COUNT” value [2]?
Its value is 5.48 x10E6/uL.

And the HEMATOCRIT [2]?
The HEMATOCRIT was 33.32%.

What about the HEMOGLOBIN [2] of the same compound?
The HEMOGLOBIN was 12.73 G/DL.

What about the “LEUKOCYTE COUNT” value [2] of the same compound?
Its value is 15.18 x10E3/uL.

And the LYMPHOCYTE [2]?
The LYMPHOCYTE was 83.83%.

And the “MEAN CORPUSCULAR HEMOGLOBIN” value [2]?
Its value is 23.25 pg.

What about the “MEAN CORPUSCULAR HEMOGLOBIN CONCENTRATION” value [2] of the same compound?
Its value is 38.22 G/DL.

And the “MEAN CORPUSCULAR VOLUME” value [2]?
The value was 60.85 fL.

What about the MONOCYTE [2] of the same compound?
Its MONOCYTE is 2.83%.

And the NEUTROPHIL [2]?
Its NEUTROPHIL is 13.17%.

What about the “NUCLEATED RED BLOOD CELLS” value [2] of the same compound?
Its value is 0 /100WBC.

And the “PLATELET COUNT” value [2]?
The value was 909.83 x10E3/uL.

What about the “ALANINE AMINOTRANSFERASE” value [2] of the same compound?
The value was 57.67 u/L.

And the ALBUMIN [2]?
Its ALBUMIN is 4.03 G/DL.

What about the “ALKALINE PHOSPHATASE” value [2] of the same compound?
Its value is 472.33 u/L.

What about the “ASPARTATE AMINOTRANSFERASE” value [2] of the same compound?
The value was 80.83 u/L.

What about the “BLOOD UREA NITROGEN” value [2] of the same compound?
The value was 14.67 mg/dL.

And the “CARBON DIOXIDE” value [2]?
Its value is 31.83 mmol/L.

And the CHLORIDE [2]?
Its CHLORIDE is 96 MEQ/L.

What about the CHOLESTEROL [2] of the same compound?
The CHOLESTEROL was 68 mg/dL.

And the “CREATINE PHOSPHOKINASE” value [2]?
The value was 281.67 u/L.

What about the CREATININE [2] of the same compound?
The CREATININE was 0.19 mg/dL.

What about the GLUCOSE [2] of the same compound?
Its GLUCOSE is 147.33 mg/dL.

What about the “LACTATE DEHYDROGENASE” value [2] of the same compound?
Its value is 210.83 u/L.

And the LIPASE [2]?
Its LIPASE is 11 u/L.

And the PHOSPHORUS [2]?
Its PHOSPHORUS is 11.63 mg/dL.

And the POTASSIUM [2]?
The POTASSIUM was 6.06 MEQ/L.

What about the SODIUM [2] of the same compound?
The SODIUM was 139.37 MEQ/L.

What about the “TOTAL BILIRUBIN” value [2] of the same compound?
The value was 0.17 mg/dL.

And the “TOTAL PROTEIN” value [2]?
The value was 5.82 G/DL.

What about the “URIC ACID” value [2] of the same compound?
Its value is 1.12 mg/dL.

What about the “ABSOLUTE BASOPHIL” value [3] of the same compound?
The value was 0 CELLS/uL.

What about the “ABSOLUTE EOSINOPHIL” value [3] of the same compound?
The value was 91 CELLS/uL.

What about the “ABSOLUTE LYMPHOCYTE” value [3] of the same compound?
Its value is 10987.33 CELLS/uL.

And the “ABSOLUTE MONOCYTE” value [3]?
Its value is 229 CELLS/uL.

And the “ABSOLUTE SEGMENTED NEUTROPHIL” value [3]?
The value was 2392.67 CELLS/uL.

And the BASOPHIL [3]?
Its BASOPHIL is 0%.

What about the EOSINOPHIL [3] of the same compound?
The EOSINOPHIL was 0.67%.

What about the “ERYTHROCYTE COUNT” value [3] of the same compound?
Its value is 5.31 x10E6/uL.

What about the HEMATOCRIT [3] of the same compound?
The HEMATOCRIT was 33.1%.

What about the HEMOGLOBIN [3] of the same compound?
Its HEMOGLOBIN is 12.4 G/DL.

What about the “LEUKOCYTE COUNT” value [3] of the same compound?
The value was 13.7 x10E3/uL.

What about the LYMPHOCYTE [3] of the same compound?
The LYMPHOCYTE was 80.33%.

And the “MEAN CORPUSCULAR HEMOGLOBIN” value [3]?
Its value is 23.37 pg.

And the “MEAN CORPUSCULAR HEMOGLOBIN CONCENTRATION” value [3]?
The value was 37.47 G/DL.

And the “MEAN CORPUSCULAR VOLUME” value [3]?
Its value is 62.37 fL.

And the MONOCYTE [3]?
The MONOCYTE was 1.67%.

What about the NEUTROPHIL [3] of the same compound?
The NEUTROPHIL was 17.33%.

And the “NUCLEATED RED BLOOD CELLS” value [3]?
Its value is 0 /100WBC.

And the “PLATELET COUNT” value [3]?
Its value is 1097 x10E3/uL.

And the “ALANINE AMINOTRANSFERASE” value [3]?
The value was 88 u/L.

What about the ALBUMIN [3] of the same compound?
Its ALBUMIN is 4.7 G/DL.

And the “ALKALINE PHOSPHATASE” value [3]?
Its value is 593 u/L.

And the “ASPARTATE AMINOTRANSFERASE” value [3]?
Its value is 109.67 u/L.

What about the “BLOOD UREA NITROGEN” value [3] of the same compound?
The value was 15.33 mg/dL.

What about the “CARBON DIOXIDE” value [3] of the same compound?
The value was 25.67 mmol/L.

What about the CHLORIDE [3] of the same compound?
The CHLORIDE was 102.33 MEQ/L.

And the CHOLESTEROL [3]?
The CHOLESTEROL was 44.33 mg/dL.

What about the “CREATINE PHOSPHOKINASE” value [3] of the same compound?
Its value is 372 u/L.

What about the CREATININE [3] of the same compound?
The CREATININE was 0.23 mg/dL.

What about the GLUCOSE [3] of the same compound?
Its GLUCOSE is 141 mg/dL.

And the “LACTATE DEHYDROGENASE” value [3]?
Its value is 370.67 u/L.

And the LIPASE [3]?
Its LIPASE is 10.67 u/L.

And the PHOSPHORUS [3]?
Its PHOSPHORUS is 12.4 mg/dL.

And the POTASSIUM [3]?
Its POTASSIUM is 6.4 MEQ/L.

And the SODIUM [3]?
The SODIUM was 144.37 MEQ/L.

And the “TOTAL BILIRUBIN” value [3]?
The value was 0.1 mg/dL.

What about the “TOTAL PROTEIN” value [3] of the same compound?
The value was 5.57 G/DL.

What about the “URIC ACID” value [3] of the same compound?
Its value is 1.3 mg/dL.
